SMILES strings stand for the structures. Values after ≈ are worked out from the molar mass of the structure shown. Active and inactive are the calls of the source. No cut-off for these calls is given here.

The test system of assay [1] is Candida albicans. As to the kind of experiment: Antifungal activity against Candida albicans BWP17 at MIC80 for 3 days by spot assay. It is filed as functional, organism-based.
The subject of assay [2] is Candida albicans. Nature of the assay: Antifungal activity against Candida albicans BWP17 at 1/10th of MIC80 for 3 days by spot assay. It is filed as functional, organism-based.
Assay [3] concerns Candida albicans. As to the kind of experiment: Antifungal activity against Candida albicans BWP17 assessed as cell wall damage measured as cell clumping at MIC80 by confocal microscopic analysis. It is filed as functional, organism-based.
The test system of assay [4] is Candida albicans. Nature of the assay: Antifungal activity against Candida albicans BWP17 assessed as necrotic cells at […] incubated for overnight by PI staining based microscopic analysis. It is filed as functional, organism-based.
Assay [5] relates to Candida albicans. Nature of the assay: Antifungal activity against Candida albicans BWP17 assessed as zone of inhibition at 0.5 mg/ml for 48 hrs by disk diffusion method (reference value: 0.6 cm). Format: functional. (A growth-free zone around the sample is the usual read-out of agar diffusion tests.)
The test system of assay [6] is Candida albicans. Nature of the assay: Antifungal activity against Candida albicans BWP17 assessed as zone of inhibition at 1 mg/ml for 48 hrs by disk diffusion method (reference value: 0.6 cm). Format: functional.
For assay [7], the system named is Candida albicans. Nature of the assay: Antifungal activity against Candida albicans BWP17 assessed as zone of inhibition at 2 mg/ml for 48 hrs by disk diffusion method (reference value: 0.6 cm). Format: functional.
Assay [8] has as its system Candida albicans. As to the kind of experiment: Antifungal activity against Candida albicans BWP17 after 48 hrs by broth dilution method. Format: functional. Conditions: BWP17, 48 h.
The subject of assay [9] is Candida albicans. As to the kind of experiment: Antifungal activity against Candida albicans BWP17 at 1.25 mg/ml after 48 hrs by broth dilution method. Format: functional. Conditions: BWP17, BWP17, 48 h. (In general: Dilution methods test growth across graded concentrations, often in twofold steps.)
The subject of assay [10] is Candida albicans. As to the kind of experiment: Antifungal activity against Candida albicans BWP17 at 0.6 mg/ml after 48 hrs by broth dilution method. Format: functional. Conditions: BWP17, BWP17, 48 h.
Assay [11] concerns Candida albicans. As to the kind of experiment: Antifungal activity against Candida albicans BWP17 at 0.3 mg/ml after 48 hrs by broth dilution method. It is filed as functional. Conditions: BWP17, BWP17, 48 h.
The test system of assay [12] is Candida albicans. As to the kind of experiment: Antifungal activity against Candida albicans BWP17 at 0.16 mg/ml after 48 hrs by broth dilution method. It is filed as functional. As to conditions: BWP17, BWP17, 48 h.
The subject of assay [13] is Candida albicans. As to the kind of experiment: Antifungal activity against Candida albicans BWP17 at 0.08 mg/ml after 48 hrs by broth dilution method. Format: functional. As to conditions: BWP17, BWP17, 48 h.
Assay [14] relates to Candida albicans. As to the kind of experiment: Antifungal activity against Candida albicans BWP17 at 0.04 mg/ml after 48 hrs by broth dilution method. It is filed as functional. As to conditions: BWP17, BWP17, 48 h.
Assay [15] deals with Candida albicans. As to the kind of experiment: Antifungal activity against Candida albicans BWP17 assessed as mild growth inhibition at 400 ug/ml after 24 hrs by spot assay. It is filed as functional, organism-based.
The test system of assay [16] is Candida albicans. As to the kind of experiment: Antifungal activity against Candida albicans BWP17 at 400 ug/ml after 48 hrs by spot assay. Format: functional, organism-based.
Assay [17] concerns Candida albicans. As to the kind of experiment: Antifungal activity against Candida albicans BWP17 at > MIC80 compound added to secondary culture for 3 days by spot assay. Format: functional, organism-based.
Assay [18] concerns Candida albicans. Nature of the assay: Antifungal activity against Candida albicans BWP17 at MIC80 for 3 days by spot assay in presence of ketoconazole. It is filed as functional, organism-based.
For assay [19], the system named is Candida albicans. Nature of the assay: Antifungal activity against Candida albicans BWP17 at 1/10th of MIC80 for 3 days by spot assay in presence of ketoconazole. Format: functional, organism-based.
Assay [20] has as its system Candida albicans. As to the kind of experiment: Antifungal activity against Candida albicans BWP17 at MIC80 after 2 days by spot assay in presence of terbinafine. Format: functional, organism-based.
Assay [21] has as its system Candida albicans. Nature of the assay: Antifungal activity against Candida albicans BWP17 at MIC80 after 3 days by spot assay in presence of terbinafine. It is filed as functional, organism-based.
The test system of assay [22] is Candida albicans. Nature of the assay: Antifungal activity against Candida albicans BWP17 at 62.5 ug/ml for 3 days by spot assay in presence of terbinafine. Format: functional, organism-based.
Assay [23] deals with Candida albicans. Nature of the assay: Antifungal activity against Candida albicans BWP17 assessed as cell wall damage measured as cell clumping at MIC80 by confocal microscopic analysis in presence of ketoconazole. It is filed as functional, organism-based.
Assay [24] has as its system Candida albicans. As to the kind of experiment: Antifungal activity against Candida albicans BWP17 assessed as increase in chitin level at MIC80 by CFW staining based microscopic analysis in presence of ketoconazole. It is filed as functional, organism-based.
Assay [25] concerns Candida albicans. As to the kind of experiment: Antifungal activity against Candida albicans BWP17 assessed as increase in chitin level at MIC80 by CFW staining based microscopic analysis. It is filed as functional, organism-based.
Assay [26] concerns Candida albicans. Nature of the assay: Antifungal activity against Candida albicans BWP17 assessed as increase in chitin level at 1/10th of MIC80 by spot assay in presence of CFW. Format: functional, organism-based.
The subject of assay [27] is Candida albicans. Nature of the assay: Antifungal activity against Candida albicans BWP17 assessed as cell shrinkage and deposition of cellular content on cell surface at 312.5 ug/ml by scanning electron microscopic analysis. It is filed as functional, organism-based.
Assay [28] deals with Candida albicans. As to the kind of experiment: Antifungal activity against Candida albicans BWP17 assessed as cell shrinkage and deposition of cellular content on cell surface at < MIC80 by scanning electron microscopic analysis. It is filed as functional, organism-based.
Assay [29] relates to Candida albicans. Nature of the assay: Antifungal activity against Candida albicans BWP17 assessed as cell shrinkage and deposition of cellular content on cell surface at 312.5 ug/ml by scanning electron microscopic analysis in presence of ketocanozole. Format: functional, organism-based.
The test system of assay [30] is Candida albicans. As to the kind of experiment: Antifungal activity against Candida albicans BWP17 assessed as necrotic cells incubated for overnight by PI staining based microscopic analysis. It is filed as functional, organism-based.
For assay [31], the system named is Candida albicans. Nature of the assay: Antifungal activity against Candida albicans BWP17 assessed as necrotic cells at 312.5 ug/ml incubated for overnight by PI staining based microscopic analysis in presence of ketoconazole. It is filed as functional, organism-based.

As to `CC(=O)N1CCN(c2ccc(OCC3COC(Cn4ccnc4)(c4ccc(Cl)cc4Cl)O3)cc2)CC1` (stereo not given), the outcome in assay [1], in [2], in assay [3] and in assay [4] was Active.
On to `O=C(O)CC[C@H](NC(=O)C(=O)c1cn(Cc2cn(-c3ccccc3)nn2)c2ccccc12)C(=O)O`, for which the results for the Activity in assay [5], in assay [6] and in [7] were 0.8 cm, 1.2 cm and 2.5 cm, respectively. The MIC80 (usually an inhibitory concentration at the 80% level, which refers to growth in some studies and to a panel of isolates in others) in assay [8] is 312 µg/mL (≈ 657 µM). Moreover, in assay [9], at 1250 µg/mL the inhibition was 84%. In addition, the inhibition – broadly, the change of the read-out against control, counted positive when it falls – at 600 µg/mL in assay [10] worked out at 84%. The compound further returned an inhibition at 300 µg/mL in [11] of 81%. For the same compound, the inhibition at 160 µg/mL in [12] was 33%. Further, the inhibition at 80 µg/mL in [13] is 18%. The compound further came in with an inhibition at 40 µg/mL in assay [14] of 6%. Moreover, the outcome in [15], in [17], in assay [1], in assay [18], in assay [2] and in assay [19] was Active. Also, the result in assay [20], in [21], in [3], in assay [23], in assay [24] and in assay [25] was Active. For the same compound, the outcome in [26], in assay [27], in assay [28], in [29], in assay [30] and in assay [31] was Active. For the same compound, the result in assay [16] and in [22] was inactive.
For `CN(C/C=C/C#CC(C)(C)C)Cc1cccc2ccccc12`, the result in assay [1] was Active.

Values taken from ChEMBL document CHEMBL3739397, “Identification of an indoletriazoleamino acid conjugate as a highly effective antifungal agent” (2015).
